The values below come from ChEMBL document CHEMBL1201862, “PubChem BioAssay data set” (2004).

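A five-concentration, 48-hour dose response in 96-well plates underlies each endpoint, interpolated linearly between surrounding concentrations. At the GI50, growth is halved.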 The source made the active and inactive calls. Rule as the data show it: active = GI50 up to about 1.1 µM and inactive = higher. Some results are limits rather than exact numbers.

Among the test systems are OVCAR-5; RXF 393; SNB-75; COLO 205; UACC-62; TK-10; SK-MEL-5; KM12; OVCAR-4; SK-MEL-28; 786-0; IGROV-1; HCT-116; A549; RPMI-8226.
Common to all, as to assay: NCI tumour cell line growth inhibition, 48 h

As to `Cc1nc(O)nc(CC(O)(c2ccccc2)c2ccccc2)c1-c1ccccc1`, the GI50 with OVCAR-5 is > 100 µM (inactive); with RXF 393, > 100 µM (inactive); in the assay with SNB-75 it was 52.6 µM (inactive); in the assay on COLO 205 it was > 100 µM (inactive); with UACC-62, > 100 µM (inactive); in the assay on TK-10, > 100 µM (inactive). In addition, the GI50 with SK-MEL-5, in the assay with KM12, with OVCAR-4, in the assay with SK-MEL-28, with 786-0 and in the assay with IGROV-1 was > 100 µM (inactive) in each case. Besides, the GI50 in the assay on HCT-116 and in the assay on A549 was > 100 µM (inactive) in each case.
For the molecule `Cc1nc(Nc2ccccc2)sc1C(=O)CC(=O)C(=O)NC12CC3CC(CC(C3)C1)C2`, the GI50 is > 100 µM (inactive) with OVCAR-5; 54.6 µM (inactive) in the assay with RXF 393; 33.9 µM (inactive) in the assay with SNB-75; > 100 µM (inactive) in the assay on COLO 205; 41.4 µM (inactive) with UACC-62; > 100 µM (inactive) with TK-10. In addition, the GI50 in the assay with SK-MEL-5 was 74.5 µM (inactive); with KM12, > 100 µM (inactive); in the assay on OVCAR-4 it was > 100 µM (inactive); with SK-MEL-28 it was > 100 µM (inactive); with 786-0, > 100 µM (inactive); with IGROV-1, 84.5 µM (inactive). Also, the GI50 with HCT-116 and with A549 was > 100 µM (inactive) in each case.
On to `Cc1nc2c(n1CC(C)(C)C)C(=O)c1ccccc1C2=O`, for which the GI50 was > 100 µM (inactive) in the assay on RXF 393; > 100 µM (inactive) with SNB-75; > 100 µM (inactive) in the assay with COLO 205; 89.5 µM (inactive) in the assay on UACC-62; > 100 µM (inactive) with TK-10; 43.1 µM (inactive) in the assay on SK-MEL-5. Also, the GI50 in the assay on KM12 is > 100 µM (inactive); in the assay on OVCAR-4, > 100 µM (inactive); in the assay with SK-MEL-28 it was > 100 µM (inactive); with 786-0 it was > 100 µM (inactive); in the assay on IGROV-1, > 100 µM (inactive); with HCT-116 it was 79.3 µM (inactive). For the same molecule, in the assay with A549, the GI50 was > 100 µM (inactive).
On to `Cc1ccc(/C=C/C(=O)c2sc(-c3cccnc3)nc2C)cc1`, for which the GI50 is > 100 µM (inactive) in the assay with OVCAR-5; 98.9 µM (inactive) in the assay with RXF 393; > 100 µM (inactive) with RPMI-8226; > 100 µM (inactive) in the assay on COLO 205; > 100 µM (inactive) in the assay on UACC-62; > 100 µM (inactive) in the assay with TK-10. Besides, the GI50 in the assay on SK-MEL-5, in the assay on KM12, with 786-0, in the assay with IGROV-1 and in the assay on A549 was > 100 µM (inactive) in each case.
On to `CN(C)CCSc1nccc(-c2cc3ccccc3s2)n1`, for which the GI50 with OVCAR-5 was 27.2 µM (inactive); in the assay on RXF 393, 18.5 µM (inactive); in the assay with SNB-75, 54 µM (inactive); with COLO 205 it was 17.2 µM (inactive); with UACC-62, 20.4 µM (inactive); in the assay on TK-10, > 10 µM (inactive). Besides, the GI50 with SK-MEL-5 is 14.3 µM (inactive); in the assay with KM12, 19.3 µM (inactive); with OVCAR-4 it was 38.5 µM (inactive); with SK-MEL-28, 20 µM (inactive); in the assay with 786-0, 24.2 µM (inactive); with IGROV-1 it was 42.3 µM (inactive). In addition, the GI50 with HCT-116 is 24.4 µM (inactive); with A549 it was 17.6 µM (inactive).
Take `N#CC1=C(N)Oc2c(ccc3cccnc23)C1c1ccccc1` (stereo not given): the GI50 with OVCAR-5 was 72.4 µM (inactive); with RXF 393 it was 2.13 µM (inactive); in the assay with SNB-75 it was 0.731 µM (active); in the assay on COLO 205, 1.24 µM (inactive); in the assay on UACC-62 it was 0.697 µM (active); in the assay with TK-10 it was 3.9 µM (inactive). The GI50 in the assay with SK-MEL-5 is 0.811 µM (active); with KM12, 0.441 µM (active); in the assay on OVCAR-4 it was 17.2 µM (inactive); in the assay with SK-MEL-28 it was 6.12 µM (inactive); in the assay on 786-0 it was 6 µM (inactive); with IGROV-1, 0.847 µM (active). Further, the GI50 was 0.562 µM (active) in the assay on HCT-116 and 0.738 µM (active) in the assay on A549.
